This is an account of results in paper PMC3510196, “Cloning and Characterization of a P2X Receptor Expressed in the Central Nervous System of Lymnaea stagnalis” (PLoS ONE, 2012).

What all share (assay): two-electrode voltage clamp, Xenopus oocytes
Common to all, as to format: cell-based

In experiment [1] the target is T1, LymP2X (Lymnaea stagnalis, UniProt K7QP77).
T1 construct: full-length, 435 residues, shorter clone starting at second in-frame ATG; cRNA injected in Xenopus oocytes; homotrimer expected (P2X family); differs from contig FX193730 in 50 residues of the cysteine-rich head (possible alternative exon)
T1 sequence (K7QP77 1-435): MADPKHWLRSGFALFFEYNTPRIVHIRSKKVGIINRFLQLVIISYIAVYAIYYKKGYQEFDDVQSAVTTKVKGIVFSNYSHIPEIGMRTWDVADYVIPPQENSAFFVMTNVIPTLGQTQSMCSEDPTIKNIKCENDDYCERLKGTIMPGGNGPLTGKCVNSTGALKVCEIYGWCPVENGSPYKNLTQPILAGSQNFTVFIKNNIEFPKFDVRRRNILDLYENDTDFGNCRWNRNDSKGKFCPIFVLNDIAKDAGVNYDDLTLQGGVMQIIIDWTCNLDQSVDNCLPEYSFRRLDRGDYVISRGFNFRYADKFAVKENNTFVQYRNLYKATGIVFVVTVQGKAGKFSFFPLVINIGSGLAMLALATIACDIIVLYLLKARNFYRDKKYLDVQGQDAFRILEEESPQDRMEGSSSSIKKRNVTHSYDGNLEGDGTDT
Conditions: weak agonist; pH 7.5, 1.8 mM Ba2+ in place of Ca2+, -60 mV.

The target in experiment [2] is T1, LymP2X.
Experiment [3] has as its target T2, LymP2X clone 11 (Lymnaea stagnalis, UniProt K7QP77, INS0MTTK).
T2 construct: full-length plus N-terminal MTTK (upstream in-frame ATG at nucleotide 3) added to LymP2X (GenBank JX524180); Xenopus oocytes
T2 sequence (K7QP77 1-435 INS0MTTK): T1 sequence (K7QP77 1-435)

For experiment [4], the target named is T1, LymP2X. This is another data set of the same source.

SMILES strings stand for the structures. pEC50, pIC50: −log10 of the molar value.

With `Nc1ncnc2c1ncn2[C@@H]1O[C@H](COP(=O)(O)CP(=O)(O)OP(=O)(O)O)[C@@H](O)[C@H]1O` [αβmeATP], in experiment [1], the “% of 10 μM ATP response at 100 μM” value is recorded as 36.9±10.6%.

In turn, `Nc1ncnc2c1ncn2[C@@H]1O[C@H](COP(=O)(O)OP(=O)(O)OP(=O)(O)O)[C@@H](OC(=O)c2ccc(C(=O)c3ccccc3)cc2)[C@H]1O` [BzATP] gave a pEC50 in experiment [2] of 5.62.

With `Nc1ncnc2c1ncn2[C@@H]1O[C@H](COP(=O)(O)OP(=O)(O)OP(=O)(O)O)[C@@H](O)[C@H]1O` [ATP], the pEC50 in experiment [3] is 5.24; in experiment [2] it was 5.21.

In turn, `Cc1nc(N=Nc2ccc(S(=O)(=O)O)cc2S(=O)(=O)O)c(COP(=O)(O)O)c(C=O)c1O` [PPADS] had a pIC50 in experiment [4] of 5.09.

On to `Cc1ccc(C(=O)Nc2ccc(S(=O)(=O)O)c3cc(S(=O)(=O)O)cc(S(=O)(=O)O)c23)cc1NC(=O)c1cccc(NC(=O)Nc2cccc(C(=O)Nc3cc(C(=O)Nc4ccc(S(=O)(=O)O)c5cc(S(=O)(=O)O)cc(S(=O)(=O)O)c45)ccc3C)c2)c1` [suramin], for which, in experiment [4], the pIC50 is 4.56.
